Source: patent US6784167B2, “17-beta-hydroxysteroid dehydrogenase-II inhibitors” (Bayer Pharmaceuticals Corporation, priority 2000, dated 2004)
Like-named read-outs stand apart in the source and are kept apart here.

Legend:
17-Beta HSD II Enzyme = target: T1, 17-Beta HSD II Enzyme (Homo sapiens, UniProt P37059); assay: Primary assay: inhibition of 17-Beta HSD II enzyme (estradiol/NAD, PMS:MTS colorimetric readout at 490 nm); assay type: biochemical; conditions: Table 7, baculovirus-expressed recombinant HSD II, estradiol substrate
T1 construct: made in house; host or cells: insect cells (baculovirus)
T1 sequence (P37059 1-387): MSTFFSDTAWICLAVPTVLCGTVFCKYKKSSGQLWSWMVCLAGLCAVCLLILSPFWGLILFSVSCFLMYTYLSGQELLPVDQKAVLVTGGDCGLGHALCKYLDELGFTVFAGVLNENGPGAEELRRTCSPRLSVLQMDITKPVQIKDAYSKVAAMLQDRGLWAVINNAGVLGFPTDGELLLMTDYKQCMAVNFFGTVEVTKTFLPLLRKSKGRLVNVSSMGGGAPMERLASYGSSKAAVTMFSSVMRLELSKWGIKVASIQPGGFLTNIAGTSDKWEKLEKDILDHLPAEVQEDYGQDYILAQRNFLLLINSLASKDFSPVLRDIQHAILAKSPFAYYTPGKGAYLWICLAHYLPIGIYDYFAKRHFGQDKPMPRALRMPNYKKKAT
Experimental: HSD II protein purification: The method for purification of baculovirus-expressed HSD II was standardized as follows. The insect cell pellet containing recombinant HSD II was lysed in 2.5 volumes of lysis buffer (40 mM Tris, pH 7.5, 1 mM EDTA, 2 mM DTT, 10 uM NAD) containing 500 uM AEBSF, 10 ug/ml aprotinin, 1 uM pepstatin A, and 100 uM leupeptin. The pellet was nutated for 30 min in this buffer. Subsequently, the pellet was homogenized with 15 strokes using a glass and teflon potter. The volume was doubled with a 2× sucrose/NaCl solution (500 mM sucrose, 300 mM NaCl in lysis buffer). After centrifugation at 10,000×g for 30 min, the supernatant was decanted and stored at −20° C. The pellet was resuspended in 2.5 volumes of lysis buffer containing 250 mM sucrose and 150 mM NaCl. Homogenization was repeated (15 strokes) and the suspension was centrifuged again and the decanted supernatant was stored at −20° C. The pellet was resuspended with 2 times the original pellet volume in lysis buffer containing 150 mM NaCl and 1% Triton X-100. The suspension was nutated for 20 min and then homogenized with 5 strokes. Subsequently, the suspension was centrifuged at 30,000×g for 1 h and supernatant was decanted and poured into a chromatographic column. Sephadex G-25 (fine) was added in small amounts, allowing approximately 15 min after each addition for complete swelling. Sephadex addition was continued until all liquid was absorbed. The protein was eluted with 1 void volume of lysis buffer and eluate monitored at 280 nm optical density. The chromatographic procedure was repeated and an equal volume of glycerol was added to the final eluate.
Primary assay: After titration, the HSD II prep, generated with the standard protocol, was diluted to the appropriate concentration (generally 1/15 dilution). 55 μl of assay buffer (50 mM Hepes, pH 8.0) was added to all wells of a 96 well plate. 5 μl of 5% DMSO were added to wells A1-C1, A2-C2, F1-H1, and F2-H2. A 10 μl aliquot of a 10 mM solution in DMSO of each compound was diluted in 190 μl of assay buffer. The plate with these compound dilutions was then mixed for 15 min on a shaker and a 5 μl aliquot from each well was added to the […]. This was followed by 10 μl of HSD II enzyme ( 1/15 dilution)/estradiol mix in assay buffer containing 1% Triton X-100. The estradiol […] from a 20 mM estradiol DMSO stock solution, which was diluted 1/20 (50 μl/ml) in 50 mM Hepes buffer containing 1% Triton X-100. All wells, except F1-H1 and F2-H2, also received 10 μl of 25 mg/ml NAD (SIGMA) in 100 mM Hepes, pH 9. The blank wells F1-H1 and F2-H2 received 10 μl of NAD buffer. 20 μl of PMS:MTS solution (100 μl PMS into 1800 μl MTS, Promega) was added to all wells. The plate was covered with aluminum foil and incubated at room temperature for 1.5 h. The plate was analyzed at 490 nm on a Hewlett Pachard 8453 spectrophotometer and results were calculated.

[1] = read-out: IC50 values ≧2 μM and <10 μM

Structure (SMILES)	IC50 (17-Beta HSD II Enzyme; [1])	melting point	IC50 (17-Beta HSD II Enzyme)
COc1ccccc1[C@H]1CC(=O)N(C)[C@H]1[C@H](O)c1ccc(S(=O)(=O)c2ccccc2)s1 (racemic) [Example 91]		160 °C	< 500 nM
CN1C(=O)C[C@H](c2ccccc2F)[C@@H]1[C@H](O)c1ccc(-c2cccs2)s1 [Example 155]		200 to 202 °C	< 500 nM
CN1C(=O)CC(c2ccccc2)C1C(O)C#Cc1cccc(N)c1 (racemic) [Example 133]		205 to 207 °C	< 500 nM
CO[C@H](c1cccc(Cl)c1)[C@H]1[C@@H](c2ccccc2)CC(=O)N1C [Example 142]	2000 to 10000 nM	95 to 96 °C	
CN1C(=O)CC(c2ccccc2)C1C(O)c1ccc(S(=O)(=O)c2ccc(Cl)cc2)s1 (racemic) [Example 62]		207 to 208 °C	< 500 nM
CCO[C@H](c1cccs1)[C@H]1[C@@H](c2ccccc2)CC(=O)N1C [Example 139]	2000 to 10000 nM	142 to 144 °C	

Further lines, results first:

IC50 (17-Beta HSD II Enzyme; [1])	melting point	IC50 (17-Beta HSD II Enzyme)	Structure (SMILES)
2000 to 10000 nM	157 °C		COc1cccc(-c2ccc(C(O)C3C(c4ccccc4)CC(=O)N3C)o2)c1 (stereo not shown) [Example 120]
2000 to 10000 nM	193 °C		CC(=O)Nc1cccc(-c2ccc([C@@H](O)[C@H]3[C@@H](c4ccccc4)CC(=O)N3C)o2)c1 (racemic) [Example 121]
	175 to 177 °C	< 500 nM	Cc1c(C(O)C2C(c3ccccc3)CC(=O)N2C)sc2ccc(F)cc12 (racemic) [Example 53]
	199 °C	< 500 nM	CN1C(=O)C[C@H](c2ccccc2)[C@@H]1[C@H](O)c1ccc(-c2cccc(NS(C)(=O)=O)c2)s1 (racemic) [Example 73]
2000 to 10000 nM	50 to 52 °C		CN1C(=O)C[C@H](c2ccccc2)[C@@H]1[C@H](O)Cc1cccc(Cl)c1 (relative stereo) [Example 9, (±)-(4R*,5R*)-5-[(1R*)-2-(3-chlorophenyl)-1-hydroxyethyl]-1-methyl-4-phenylpyrrolidin-2-one]
2000 to 10000 nM	255 to 256 °C		CN1C(=O)C[C@H](c2ccccc2)[C@@H]1[C@H](O)c1cccc2ccccc12 (racemic) [Example 94]
	193 °C	< 500 nM	CN(C)c1cccc(-c2ccc(C(O)C3C(c4ccccc4)CC(=O)N3C)s2)c1 (stereo not shown) [Example 74]
	216 °C (dec.)	< 500 nM	CN1C(=O)C[C@H](c2ccccc2)[C@@H]1[C@H](O)c1ccc(-c2ccccc2)s1 [Example 145]
